Patent US20030008024A1, “Therapeutic composition of herbal extracts and the uses thereof” (Advanced Herbal Therapeutics, Inc., priority 2001, published 2003)
Where two headings read alike, the source gives them in different places.

Legend:
[1] = tested on: DTH of mice induced by DNFB; test: Delayed type hypersensitivity of mouse ear induced by DNFB; format: in vivo, NIH mice
Protocol: Totals of 50 NIH mice with equal sex were randomly divided into 5 groups. Each mouse was sensitized with 0.025 ml DNBF (1%) at day 0. Five days later […], 0.01 ml DNFB was pasted as aggression on the right ear. The mice were sacrificed 24 hours later and the weight of left and right ears were measured, the difference of which was used to evaluate reaction intensity of the delayed type hypersensitivity (DTH) of the mice.
In this experiment, AHT-323 was given for consecutive six days (0˜5 days) from the day when the mice were first sensitized with DNFB.
Totals of 60 NIH mice were used. AHT-323 treatments were given at different intervals as the following: from d-2 (2 days before first sensitizing) to Day 0 (first sensitization day), from Day-2 to Day 2 (2 days after first sensitizing), from Day-2 to Day5, and from Day 0 to Day 4, respectively. The swelling rate of mouse ear was determined.
Another 50 NIH mice were used to compare AHT-323 with cyclophosphamide or cytoxan (Cy) on the effects on DTH of mice. The mice were treated with either AHT-323 or Cy alone or both at different intervals.

[2] = tested on: hemolysin antibody formation; test: Hemolysin antibody formation in SRBC-immunized normal mice; format: in vivo, mice (NIH, ICR, KM); conditions: dosing day 0˜7; for Hymolysin Antibody / inhibition at 20 mg/kg: 0.02 g/kg
Protocol: Totals of 150 mice (50 NIH mice, 50 ICR mice and 50 KM mice) weighing 18-22 g with equal sex distribution were divided into 10 groups, each of which was immunized with 0.2 ml 5% sheep red blood cells (SRBC) i.p. once. AHT-323 was given from d0 to d6. Seven days after immunization, mice were sacrificed and blood was taken from the eyeball. Assay for hemolysin antibody formation was performed and its inhibition rate was evaluated.

[3] = tested on: plaque forming cells (PFC) and serum IgM of AA mice; test: Humoral immunity of AA mice (PFC, IgM); format: in vivo, NIH mice; conditions: 0.020 g/kg
Protocol: An experimental model of adjuvant arthritis was established in NIH mice weighing 20±2 g by intradermal injection of 0.05 ml Freund's Complete Adjuvant (FCA) to the planter of hind paw. Three weeks later, the mice were treated with different dose of AHT-323 for 5 days. At the same time, they were sensitized with 0.5 ml 10% SRBC i.p. The mice were sacrificed 5 days later. The spleen cells were prepared and the plaque forming cells (PFC) were measured, the serum was prepared and IgM was determined.

TNFα = TNFα content of peritoneal macrophage suspension after oral dosing (ELISA); format: in vivo, ICR mice; conditions: 0.02 g/kg once daily 10 days
Protocol: (§1) Total of 50 ICR mice weighing 18˜22 g with equal sex were divided into 5 groups. The mice were administrated orally with different doses of AHT-323 or control (0.5% tragacanth) once daily for 10 days. 24 hours after the last dosing, the peritoneal macrophage suspensions were prepared to measure TNFα content and IL-2 activity.
An ELISA assay was performed using anti-TNFα monoclonal antibody. The TNFα concentration was calculated based on the OD value at 450 nm.

IL-2 = IL-2 activity after oral dosing (IL-2 dependent CTLL cells); format: in vivo, ICR mice; conditions: 0.02 g/kg once daily 10 days
Protocol: as §1
The IL-2 activity of macrophage was measured with IL-2 dependent CTLL cells by ELISA.

IL-1 = IL-1 activity in peritoneal macrophages after oral dosing (radio-ELISA); format: in vivo, NIH mice; conditions: 0.02 g/kg p.o. once daily 10 days
Protocol: (§2) Totals of 50 NIH mice weighing 18-22g with equal sex distribution were divided into 5 groups and administered p.o. with different doses of AHT-323 or cyclophosphamide once daily for 10 days. 24h after the last dosing, mice were sacrificed and peritoneal macrophage and spleen cells suspension were prepared to measure IL-1 and IL-6 activity, respectively.
Method of testing IL-1: IL-1 activity in peritoneal macrophages was measured with radio-ELISA and the result was shown in Table 18.

IL-6 = IL-6 activity in splenocytes after oral dosing (ELISA); format: in vivo, NIH mice; conditions: 0.02 g/kg p.o. once daily 10 days
Protocol: as §2

[4] = tested on: splenocyte lymphocytes stimulated by Con A; test: Lymphocyte blastogenesis of normal mice stimulated by Con A (3H-TdR); format: in vivo, NIH mice; conditions: 0.02 g/kg p.o. once daily 10 days
Protocol: 50 NIH mice with equal sex distribution were randomly divided into 5 groups. The mice were treated p.o. with different doses of AHT-323 or positive control drug once daily for 10 days. Twenty four hours after the last dosing, mice were sacrificed. The splenocytes were obtained and Con A (Concanavalin) was used to stimulate lymphocytes for transformation. ^3H-TdR adulteration method was used and the result was shown in table 20.

CD4 and CD8 = CD4 and CD8 content of mouse splenocytes (biotin-labeled ELISA); format: in vivo, ICR mice; conditions: 0.02 g/kg once daily ten days
Protocol: (§3) Totals of 50 ICR mice weighing 18˜22 g with equal sex distribution were randomly divided into five groups. The mice were administrated orally with different doses of AHT-323 or positive control drug respectively, once daily for consecutive ten days. 24 hours after the last dosing, the mice were sacrificed and splenocyte suspension was prepared for measurement of CD4 and CD8 content and NK cells activity.

NK cells = NK cells activity of mouse splenocytes (colorimetry); format: in vivo, ICR mice; conditions: 0.02 g/kg once daily ten days
Protocol: as §3

[5] = tested on: writhing reaction of mice; test: Writhing reaction induced by HAC; format: in vivo, Kunming mice; conditions: 0.01 g/kg once daily 3 days; first 20 minutes
Protocol: A total of 50 Kunming mice weighing 18-22 g with equal sex distribution were randomly divided into 5 groups. The mice were treated p.o. with different doses of AHT-323, tragacanth, or Morphine hydrochloride once daily for 3 days. One hour later, each mouse was treated with 0.2 ml saline containing 0.7% HAC, i.p. The time to first writhing and the number of writhing during the first 20 minutes were evaluated.

[6] = Mus musculus, 0 h, read-out: Inhibition rate (%)
[7] = Table 11, 0.1×3 g/kg, dosing day 0, 2, 4 each

O=P1(N(CCCl)CCCl)NCCCO1 (stereo not drawn) [Cy, cyclophosphamide]
inhibition at 20 mg/kg [1, 6]: 64.9% | inhibition at 25 mg/kg [1, 6]: 29% | inhibition at 250 mg/kg ([1]; Mus musculus, read-out: Inhibition rate (%)): -10.6% | % of ear Swelling ([1]; Table 9, 0.020 g/kg, dosing day 0˜5): 5.4 ± 2.6% | % of ear Swelling ([1]; Table 10, 0.025 g/kg, dosing day 0˜5): 32.8 ± 7.9% | % of ear Swelling [1, 7]: 24.10 ± 7.28% | Inhibition rate (%) [1, 7]: 39.8% | % of ear Swelling ([1]; Table 11, 0.25 g/kg, dosing day −3): 44.3 ± 7.9% | Hymolysin Antibody ([2]; ICR mice): 28 ± 7 | Hymolysin Antibody ([2]; KM mice): 46 ± 18 | inhibition at 20 mg/kg ([2]; Mus musculus, 0 h, ICR mice, read-out: Inhibition Rate (%)): 77.4% | inhibition at 20 mg/kg ([2]; Mus musculus, 0 h, KM mice, read-out: Inhibition Rate (%)): 81.1% | inhibition at 250 mg/kg ([2]; Mus musculus, 0 h, NIH mice, 0.25 g/kg, read-out: Inhibition Rate (%)): 75.4% | Hemolysin Antibody (HC50) ([2]; NIH mice, 0.25 g/kg): 33 ± 8 | IgM (Log2) [3]: 6.950 ± 0.597 Log2 | PFC (OD415) [3]: 0.835 ± 0.015 OD415 | TNFα (TNFα): 42.2 ± 9.6 pg/mL | IL-2 (IL-2): 10.1 ± 3.0 IU/ml | IL-1 (IL-1): 44.5 ± 7.7 ng/mL | IL-6 (IL-6): 49.6 ± 6.7 IU/ml | Cpm [4]: 9922 ± 1145 Cpm | Stimulate Index [4]: 13.06 ± 2.28 | CD4 (%) (CD4 and CD8): 11.50 ± 2.50 % | CD4/CD8 (CD4 and CD8): 2.91 ± 0.53 | CD8 (%) (CD4 and CD8): 4.10 ± 1.20 % | NK Activity (NK cells): 23.10 ± 3.66

CN1CC[C@]23c4c5ccc(O)c4O[C@H]2[C@@H](O)C=C[C@H]3[C@H]1C5.Cl [Morphine, Morphine hydrochloride]
Torsion number [5]: 0.0 ± 0.0
